The source of these data is patent publication US9440964B2, “Pesticidal compositions and processes related thereto” (Dow AgroSciences LLC, priority 2011, dated 2016).

Molecules are shown by their SMILES. Like-named read-outs stand apart in the source and are kept apart here.

Holding throughout (format): in vivo
The test system of assay [1] is Green Peach Aphid (GPA) (Myzus persica). The assay can be described thus: Bioassay on Green Peach Aphid (GPA), cabbage seedling foliar spray. The conditions noted are these: 72 h, read-out: Rating GPA. On the procedure:
Certain molecules disclosed in this document were tested against GPA using procedures described in the following example. In the reporting of the results, the “GPA Rating Table” was used (See Table Section).
Cabbage seedlings grown in 3-inch pots, with 2-3 small (3-5 cm) true leaves, were used as test substrate. The seedlings were infested with 20-50 GPA (wingless adult and nymph stages) one day prior to chemical application. Four pots with individual seedlings were used for each treatment. Test compounds (2 mg) were dissolved in 2 mL of acetone/MeOH (1:1) solvent, forming stock solutions of 1000 ppm test compound. The stock solutions were diluted 5× with 0.025% Tween 20 in H2O to obtain the solution at 200 ppm test compound. A hand-held aspirator-type sprayer was used for spraying a solution to both sides of […] leaves until runoff. Reference plants (solvent check) were sprayed with the diluent only containing 20% by volume of acetone/MeOH (1:1) solvent. Treated plants were held in a holding room for three days at approximately 25° C. and ambient relative humidity (RH) prior to grading. Evaluation was conducted by counting the number of live aphids per plant under a microscope. Percent Control was measured by using Abbott's correction formula (W. S. Abbott, “A Method of Computing the Effectiveness of an Insecticide” J. Econ. Entomol. 18 (1925), pp. 265-267) as follows. Corrected % Control=100*(X−Y)/X • where • X=No. of live aphids on solvent check plants and • Y=No. of live aphids on treated plants
(§1) The results are indicated in the table entitled “Table ABC: Biological Results” (See Table Section).

The test system of assay [2] is CEW (Helicoverpa zea). Nature of the assay: Bioassay on Corn Earworm (CEW), 128-well diet tray. The conditions noted are these: Helicoverpa zea, 168 h; for pest or weed control at 50 µg/cm2: read-out: Rating CEW; for pest or weed control at 0.5 µg/cm2: 0.5 μg/cm^2 on diet, read-out: Rating CEW (*Tested at 0.5 μg/cm^2). In short, it runs like this:
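Helicoverpa zea (corn earworm) was tested in a 128-well diet tray. Each 3 mL well received one to five second instar larvae on diet treated with the test material in an acetone-water mixture, applied to eight wells and dried. Trays were sealed with clear self-adhesive covers, kept at 25° C., 14:10 light-dark for five to seven days, then percent mortality was averaged across eight wells.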

Assay [3] has as its system Yellow Fever Mosquito YFM (Aedes aegypti). Nature of the assay: Bioassay on Yellow Fever Mosquito (YFM) larvae, 96-well plate. The conditions noted are these: mortality of about 1 day-old larvae, scored after 3 days. On the procedure:
Certain molecules disclosed in this document were tested against YFM using procedures described in the following paragraph. In the reporting of the results, the “YFM Rating Table” was used (See Table Section).
Master plates containing 400 μg of a molecule dissolved in 100 μL of dimethyl sulfoxide (DMSO) (equivalent to a 4000 ppm solution) are used. A master plate of assembled molecules contains 15 μL per well. To this plate, 135 μL of a 90:10 water:acetone mixture is added to each well. A robot (Biomek® NXP Laboratory Automation Workstation) is programmed to dispense 15 μL aspirations from the master plate into an empty 96-well shallow plate (“daughter” plate). There are 6 reps (“daughter” plates) created per master. The created daughter plates are then immediately infested with YFM larvae.
The day before plates are to be treated, mosquito eggs are placed in Millipore water containing liver powder to begin hatching (4 g. into 400 ml). After the daughter plates are created using the robot, they are infested with 220 μL of the liver powder/larval mosquito mixture (about 1 day-old larvae). After plates are infested with mosquito larvae, a non-evaporative lid is used to cover the plate to reduce drying. Plates are held at room temperature for 3 days prior to grading. After 3 days, each well is observed and scored based on mortality.
as §1

The test system of assay [4] is BAW (Spodoptera exigua). Nature of the assay: Bioassay on Beet Armyworm (BAW), 128-well diet tray. The conditions noted are these: Spodoptera exigua, 168 h, read-out: Rating BAW. In short, it runs like this: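 Second-instar Spodoptera exigua larvae (one to five per well) placed on artificial diet surface-treated with 50 μg/cm^2 compound in 90:10 acetone-water, dried, eight wells per compound. Held 5–7 days at 25 °C, 14:10 light-dark; percent mortality averaged across wells.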

The mark [5] stands for this setting: corrected % control (Abbott), 200 ppm foliar spray on cabbage, three days.
The mark [6] stands for this setting: percent mortality, second instar larvae, 50 μg/cm^2 on diet, five to seven days.
Where [7] appears, read: percent mortality, second instar larvae, five to seven days.

For the molecule `Cc1cccc(C)c1N/C(=N/C(=O)Nc1ccc(-c2ncn(-c3ccc(OC(F)(F)F)cc3)n2)cc1)SCOC(=O)C(C)C` [Molecule A4, (E)-(N′-(2,6-Dimethylphenyl)-N-(4-(1-(4-(trifluoromethyoxy)phenyl)-1H-1,2,4-triazol-3-yl)phenylcarbamoyl)carbamimidoylthio)methyl isobutyrate], the pest or weed control at 200 ppm in assay [1] (setting [5]) was in the range of 0 to 80%. For the same molecule, the pest or weed control at 50 µg/cm2 in assay [2] (setting [6]) and in assay [4] (setting [6]) was 50 to 100% each time. Besides, the “Rating YFM” value in assay [3] was “A (80-100)”.
`COc1cc(C)c(N/C(=N/C(=O)Nc2ccc(-c3ncn(-c4ccc(OC(F)(F)F)cc4)n3)cc2)SCOC(=O)C(C)C)c(C)c1` [Molecule A7, (E)-(N′-(2,6-Dimethyl-4-methoxyphenyl)-N-(4-(1-(4-(trifluoromethyoxy)phenyl)-1H-1,2,4-triazol-3-yl)phenylcarbamoyl)carbamimidoylthio)methyl isobutyrate]: the pest or weed control at 200 ppm in assay [1] (setting [5]) lay within 0 to 80%. For the same molecule, the pest or weed control at 50 µg/cm2 in assay [2] (setting [6]) and in assay [4] (setting [6]) was 50 to 100% in each case.
Turning to `COc1cc(C)c(N/C(=N/C(=O)Nc2ccc(-c3ncn(-c4ccc(C(F)(F)F)cc4)n3)cc2)SCOC(=O)CNC(=O)OCc2ccccc2)c(C)c1` [Molecule A9, (E)-((N′-(4-Methoxy-2,6-dimethylphenyl)-N-((4-(1-(4-(trifluoromethyl)phenyl)-1H-1,2,4-triazol-3-yl)phenyl)carbamoyl)carbamimidoyl)thio)methyl 2-(((benzyloxy)carbonyl)amino)acetate], in assay [1] (foliar), the pest or weed control at 200 ppm was 0 to 80%. Also, the pest or weed control at 50 µg/cm2 in assay [2] and in assay [4] was 50 to 100% throughout.
Consider `Cc1cccc(C)c1N/C(S)=N/C(=O)Nc1ccc(-c2ncn(-c3ccc(OC(F)(F)F)cc3)n2)cc1` [Molecule A11], for which the pest or weed control at 200 ppm in assay [1] (setting [5]) was 0 to 80%. Besides, the pest or weed control at 50 µg/cm2 in assay [2] (setting [6]) and in assay [4] (setting [6]) was 50 to 100% in each case.
Turning to `Cc1cccc(C)c1N1C(=O)CS/C1=N\C(=O)Nc1ccc(-c2ncn(-c3ccc(OC(F)(F)F)cc3)n2)cc1` [Molecule A14, (Z)-1-(3-(2,6-dimethylphenyl)-4-oxothiazolidin-2-ylidene)-3-(4-(1-(4-(trifluoromethoxy)phenyl)-1H-1,2,4-triazol-3-yl)phenyl)urea], the pest or weed control at 200 ppm in assay [1] (setting [5]) fell in the range of 0 to 80%. In addition, the pest or weed control at 50 µg/cm2 in assay [2] (setting [6]) and in assay [4] (setting [6]) was 50 to 100% each time. Also, in assay [3], the “Rating YFM” value is recorded as “A (80-100)”.
For the molecule `COc1ccc(N/C(O)=C/C(=O)Nc2ccc(-c3ncn(-c4ccc(OC(F)(F)F)cc4)n3)cc2)c(C)c1` [Molecule A33, (Z)-3-hydroxy-3-(4-methoxy-2-methylphenylamino)-N-(4-(1-(4-(trifluoromethoxy)phenyl)-1H-1,2,4-triazol-3-yl)phenyl)acrylamide], the pest or weed control at 200 ppm in assay [1] (setting [5]) was 0 to 80%. Besides, the pest or weed control at 50 µg/cm2 in assay [2] (setting [6]) and in assay [4] (setting [6]) was 50 to 100% in each case.
With `COc1cc(C)c(N2C(=O)CS/C2=N\C(=O)Nc2ccc(-c3ncn(-c4ccc(OC(F)(F)F)cc4)n3)cc2)c(C)c1` [Molecule A44], the pest or weed control at 200 ppm in assay [1] (setting [5]) was in the range of 0 to 80%. Besides, the pest or weed control at 50 µg/cm2 in assay [2] (setting [6]) and in assay [4] (setting [6]) was 50 to 100% in each case. Also, the “Rating YFM” value in assay [3] is listed as “A (80-100)”.
`CCc1ccccc1N/C(S)=N/C(=O)Nc1ccc(-c2ncn(-c3ccc(OC(F)(F)F)cc3)n2)cc1` [Molecule A46]: the pest or weed control at 200 ppm in assay [1] (setting [5]) lay in the range of 0 to 80%. Moreover, the pest or weed control at 50 µg/cm2 in assay [2] (setting [6]) and in assay [4] (setting [6]) was 50 to 100% in each case. Moreover, the “Rating YFM” value in assay [3] was “A (80-100)”.
As for `Cc1ccc(N2C(=O)CS/C2=N\C(=O)Nc2ccc(-c3ncn(-c4ccc(OC(F)(F)F)cc4)n3)cc2)c(Cl)c1` [Molecule A77], the pest or weed control at 0.5 µg/cm2 in assay [2] (setting [7]) is 50 to 100%. For the same molecule, in assay [3], the “Rating YFM” value is given as “B (More than 0-Less than 80)”. Also, the pest or weed control at 50 µg/cm2 in assay [4] (setting [6]) was 50 to 100%.
In the case of `Cc1ccccc1N/C(S)=N/C(=O)Nc1ccc(-c2ncn(-c3ccc(OC(F)(F)F)cc3)n2)cc1` [Molecule A80], the pest or weed control at 50 µg/cm2 in assay [2] (setting [6]) and in assay [4] (setting [6]) was 50 to 100% each time. The “Rating YFM” value in assay [3] is recorded as “B (More than 0-Less than 80)”.
Consider `CC(C)c1cccc(Cl)c1N1C(=O)CS/C1=N\C(=O)Nc1ccc(-c2ncn(-c3ccc(OC(F)(F)F)cc3)n2)cc1` [Molecule A85], for which, in assay [2] (setting [7]), the pest or weed control at 0.5 µg/cm2 was in the range of 50 to 100%. In addition, the “Rating YFM” value in assay [3] is listed as “A (80-100)”. In addition, the pest or weed control at 50 µg/cm2 in assay [4] (setting [6]) fell in the range of 50 to 100%.
As for `COc1ccc(N2C(=O)CS/C2=N\C(=O)Nc2ccc(-c3ncn(-c4ccc(OC(F)(F)F)cc4)n3)cc2)c(C)c1` [Molecule A110], the pest or weed control at 0.5 µg/cm2 in assay [2] (setting [7]) is 50 to 100%. The “Rating YFM” value in assay [3] was “A (80-100)”. The pest or weed control at 50 µg/cm2 in assay [4] (setting [6]) lay within 50 to 100%.
On to `Cc1cc(-c2ncn(-c3ccc(OC(F)(F)F)cc3)n2)ccc1NC(=O)/N=C(\S)Nc1ccccc1C(C)C` [Molecule A122, N-[[(2-isopropyllphenyl)amino]thioxomethyl]-N′-(2-methyl(4-(1-(4-(trifluoromethoxy)phenyl)-1H-1,2,4-triazol-3-yl)phenyl))urea], for which the pest or weed control at 0.5 µg/cm2 in assay [2] (setting [7]) fell in the range of 50 to 100%. Moreover, in assay [3], the “Rating YFM” value is “A (80-100)”. The pest or weed control at 50 µg/cm2 in assay [4] (setting [6]) was 50 to 100%.
On to `Cc1cc(-c2ncn(-c3ccc(OC(F)(F)F)cc3)n2)ccc1NC(=O)/N=C1\SCC(=O)N1c1ccccc1C(C)C` [Molecule A123, (Z)-1-(3-(2-isopropylphenyl)-4-oxothiazolidin-2-ylidene)-3-(2-methyl-4-(1-(4-(trifluoromethoxy)phenyl)-1H-1,2,4-triazol-3-yl)phenyl)urea], for which, in assay [2] (setting [7]), the pest or weed control at 0.5 µg/cm2 lay within 50 to 100%. Further, in assay [3], the “Rating YFM” value was “A (80-100)”. Moreover, in assay [4] (setting [6]), the pest or weed control at 50 µg/cm2 is 50 to 100%.
